Test results as given in US12098139B2, “Chemokine receptor modulators and uses thereof” (RAPT Therapeutics, Inc., priority 2018, dated 2024).
pIC50: −log10 of the molar value.

How the values were obtained:
[1] = system: ovalbumin-induced pulmonary inflammation; assay: Murine model of ovalbumin-induced pulmonary inflammation (BALF cell counts and mediators); assay type: in vivo, mouse (female Balb/c); details: for IL-5 levels in BALF: vs OVA group (FIG. 3)
Experimental: A study was performed to investigate the effects of daily oral administration of the compound 2-((R)-3-(1-(1-((R)-1-(2,4-Dichlorophenyl)ethyl)-3-(cyano)-1H-pyrazolo[3,4-b]pyrazin-6-yl)azetidin-3-yl)piperidin-1-yl)ethan-1-ol (FLX-A-12) (disclosed in US Patent Publication 2018-0072740 published Mar. 15, 2018) and the compound (1R,3r)-3-((R)-3-(1-(5-chloro-4-(((R)-1-(2,4-dichlorophenyl)ethyl)amino)-6-methylpyrimidin-2-yl)azetidin-3-yl)piperidin-1-yl)-1-methylcyclobutane-1-carboxylic acid (FLX-B-10) (disclosed in Example 38 herein) on the level of lung eosinophilia in a murine model of ovalbumin-induced pulmonary inflammation. An automated system of haematological cellular analysis (DASIT Sysmex XT-2000iV) was used to perform total and differential cell counts and assess the degree of ovalbumin challenge-induced pulmonary eosinophilia. FLX-A-12 and FLX-B-10 were administered daily for five days at the doses of 50 and 30-100 mg/kg respectively, and eosinophilic inflammation was measured 24 hours after the last ovalbumin challenge. Dexamethasone was included as a positive reference substance (3 mg/kg p.o. daily). On days 20-23 inclusive, mice received vehicle (30% PG in water), reference compound (Dexamethasone, 3 mg/kg) and test compounds (FLX-A-12 at 50 mg/kg and FLX-B-10 at 30 and 100 mg/kg), 1 hr prior ovalbumin challenge via the p.o. route. In addition, the test compounds (FLX-A-12 and FLX-B-10) were dosed on day 19 24 hr prior to the dosing on day 20.
FLX-A-12 was formulated at the concentration of 5 mg/mL (corresponding to the dose of 50 mg/kg in a dose volume of 10 mL/kg) in 30% PG in water. The doses of FLX-B-10 (30 and 100 mg/kg) were prepared by dissolving 3 and 10 mg/ml of the compound respectively in 30% PG in water at a dose volume of 10 ml/kg. The dose of Dexamethasone (3 mg/kg) was prepared by dissolving 0.3 mg/mL of the compound in 30% PG in water at a dose volume of 10 ml/kg.
The effects of FLX-A-12 and FLX-B-10 were assessed in the ovalbumin mouse model of pulmonary inflammation. The study was performed in female Balb/c mice, and included the following 6 treatment groups (n=10/group): (i) Vehicle group: challenged with saline and dosed with compound Vehicle, 1 hr before challenge; (ii) OVA/Vehicle group (control): challenged with ovalbumin and dosed with compound Vehicle, 1 hr before challenge; (iii) OVA/FLX-A-12 50 mg/kg (p.o.): challenged with ovalbumin and dosed with FLX-A-12, 1 hr before challenge; (iv) OVA/FLX-B-10 30 mg/kg (p.o.): challenged with ovalbumin and dosed with FLX-B-10, 1 hr before challenge; (v) OVA/FLX-B-10 100 mg/kg (p.o.): challenged with ovalbumin and dosed with FLX-B-10, 1 hr before challenge; and (vi) Dexamethasone 3 mg/kg (p.o.) group: challenged with ovalbumin and dosed with Dexamethasone, 1 hr before challenge.
The eosinophilic inflammation induced by ovalbumin-challenge (i.n.) was measured as cell count increase in bronchoalveolar lavage fluid (BALF) using an automated system of haematological cellular analysis (DASIT Sysmex XT-2000iV) at 24 hours after the last OVA-challenge. The effects of the test compounds were evaluated as ability to decrease the eosinophilic inflammation with respect to the OVA group.
For antigen sensitization, on day 1, animals received 10 μg of OVA in 2 mg of Aluminium hydroxide hydrate (AlOH3) at a dose volume of 200 μl per mouse subcutaneously (s.c.). On day 14, all animals got a second (boost) s.c. injection with the same dose of Alum/OVA as above.
On days 20-23 inclusive, mice received vehicle, 30% PG in water, reference compound (Dexamethasone 3 mg/kg) and test compounds (FLX-A-12 at 50 mg/kg and FLX-B-10 at 30 and 100 mg/kg), 1 hr prior OVA challenge via the p.o. route. In addition, test compounds (FLX-A-12 and FLX-B-10) were dosed on day 19, 24 hr prior to the dosing on day 20. All compounds were administered at a dose volume of 10 ml/kg. Dose volumes were calculated based on individual animal weight. […]

[2] = molecular target: T1, hCCR4 (Chem5-hCCR4 cells) (Homo sapiens, UniProt P51679); assay: Calcium flux assay (CCL22-stimulated, FLIPR Calcium 6 dye); assay type: cell-based; details: Table 5, CCL22 1.5 nM, read-out: Potency (IC50)
T1 sequence (P51679 1-360): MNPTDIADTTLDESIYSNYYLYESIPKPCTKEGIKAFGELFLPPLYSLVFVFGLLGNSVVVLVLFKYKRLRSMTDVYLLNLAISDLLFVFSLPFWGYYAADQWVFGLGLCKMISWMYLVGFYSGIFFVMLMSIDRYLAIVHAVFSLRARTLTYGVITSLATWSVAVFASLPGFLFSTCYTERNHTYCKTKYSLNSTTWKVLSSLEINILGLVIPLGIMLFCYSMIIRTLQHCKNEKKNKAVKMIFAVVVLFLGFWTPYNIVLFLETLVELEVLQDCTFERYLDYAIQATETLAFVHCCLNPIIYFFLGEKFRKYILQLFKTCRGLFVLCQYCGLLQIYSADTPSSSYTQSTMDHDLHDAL
In short: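 Chem5-hCCR4 cells were serum-starved 2 h and loaded 2 h with Calcium 6 dye plus 2.5 mM probenecid. They were then preincubated 1 h at 37 °C with compound (0.5% DMSO). CCL22 was added from a 7.5 nM working solution (5× EC80), and ΔF/Fmin at 485/525 nm was fitted 4-parameter for IC50.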

## C[C@@H]1C[C@H]2[C@@H]3CCC4=CC(=O)C=C[C@]4(C)[C@@]3(F)[C@@H](O)C[C@]2(C)[C@@]1(O)C(=O)CO [Dexamethasone, dexamethasone, reference compound]
[1]; 3 mg/kg p.o. daily, 24 hours after last ovalbumin challenge, vs OVA group
  percentage of reduction in the eosinophilic cell count in BALF: 92%

## COC(C)c1cnc(N2CC([C@H]3CCCN([C@H]4C[C@](C)(C(=O)O)C4)C3)C2)nc1N[C@H](C)c1ccc(Cl)cc1Cl (stereo partly drawn) [Example 79, 3-[(3R)-3-[1-[4-[[(1R)-1-(2,4-dichlorophenyl)ethyl]amino]-5-(1-methoxyethyl)pyrimidin-2-yl]azetidin-3-yl]-1-piperidyl]-1-methyl-cyclobutanecarboxylic acid; 2,2,2-trifluoroacetic acid]
[2]
  pIC50: > 7.00

## C[C@@H](Nc1nc(N2CC([C@H]3CCCN(CCO)C3)C2)ncc1C(=O)N1CCCC1)c1ccc(Cl)cc1Cl [Example 85, [4-[[(1R)-1-(2,4-dichlorophenyl)ethyl]amino]-2-[3-[(3R)-1-(2-hydroxyethyl)-3-piperidyl]azetidin-1-yl]pyrimidin-5-yl]-pyrrolidin-1-yl-methanone; 2,2,2-trifluoroacetic acid]
[2]
  pIC50: 6.30 to 7.00

## C[C@@H](Nc1nc(N2CC(C3CCCN([C@H]4C[C@@H](O)C4)C3C(=O)O)C2)ncc1Cl)c1ccc(Cl)cc1Cl (stereo partly drawn) [Example 87, 3-[1-[5-chloro-4-[[(1R)-1-(2,4-dichlorophenyl)ethyl]amino]pyrimidin-2-yl]azetidin-3-yl]-1-(3-hydroxycyclobutyl)piperidine-2-carboxylic acid; 2,2,2-trifluoroacetic acid]
[2]
  pIC50: > 7.00

## C[C@@H](Nc1nc(N2CC(C3CCCN(C4CC(CO)C4)C3C(=O)O)C2)ncc1Cl)c1ccc(Cl)cc1Cl (stereo partly drawn) [Example 88, 3-[1-[5-chloro-4-[[(1R)-1-(2,4-dichlorophenyl)ethyl]amino]pyrimidin-2-yl]azetidin-3-yl]-1-[3-(hydroxymethyl)cyclobutyl]piperidine-2-carboxylic acid; 2,2,2-trifluoroacetic acid]
[2]
  pIC50: > 7.00

## C[C@@H](Nc1nc(N2CC([C@H]3CCCN([C@H]4C[C@@H](C(=O)O)C4)C3)C2)ncc1C#N)c1ccc(Cl)cc1Cl [Example 93, 3-[(3R)-3-[1-[5-cyano-4-[[(1R)-1-(2,4-dichlorophenyl)ethyl]amino]pyrimidin-2-yl]azetidin-3-yl]-1-piperidyl]cyclobutanecarboxylic acid]
[2]
  pIC50: 6.30 to 7.00

## C[C@@H](Nc1nc(N2CC([C@H]3CCCN([C@H]4C[C@](C)(C(=O)O)C4)C3)C2)nc2ccccc12)c1ccc(Cl)cc1Cl [Example 94, 3-[(1R,3R)-3-[1-[4-[[(1R)-1-(2,4-dichlorophenyl)ethyl]amino]quinazolin-2-yl]azetidin-3-yl]-1-piperidyl]-1-methyl-cyclobutanecarboxylic acid; 2,2,2-trifluoroacetic acid]
[2]
  pIC50: > 7.00

## C[C@@H](Nc1nc(N2CC([C@H]3CCCN([C@H]4C[C@@H](C(=O)O)C4)C3)C2)nc2ccccc12)c1ccc(Cl)cc1Cl [Example 95, 3-[(1S,3R)-3-[1-[4-[[(1R)-1-(2,4-dichlorophenyl)ethyl]amino]quinazolin-2-yl]azetidin-3-yl]-1-piperidyl]cyclobutanecarboxylic acid; 2,2,2-trifluoroacetic acid]
[2]
  pIC50: > 7.00

## C[C@H](c1ccc(Cl)cc1Cl)n1nc(C#N)c2ncc(N3CC([C@H]4CCCN(CCO)C4)C3)nc21 [FLX-A-12, 2-((R)-3-(1-(1-((R)-1-(2,4-Dichlorophenyl)ethyl)-3-(cyano)-1H-pyrazolo[3,4-b]pyrazin-6-yl)azetidin-3-yl)piperidin-1-yl)ethan-1-ol, reference compound]
[1]; 50 mg/kg p.o.
  IL-5 levels in BALF: significantly reduced

## Cc1nc(N2CC([C@H]3CCCN([C@H]4C[C@](C)(C(=O)O)C4)C3)C2)nc(N[C@H](C)c2ccc(Cl)cc2Cl)c1Cl [FLX-B-10, (1R,3r)-3-((R)-3-(1-(5-chloro-4-(((R)-1-(2,4-dichlorophenyl)ethyl)amino)-6-methylpyrimidin-2-yl)azetidin-3-yl)piperidin-1-yl)-1-methylcyclobutane-1-carboxylic acid]
[1]; 30 mg/kg p.o. (FIG. 6)
  CCL-22 in BALF: significantly reduced in all conditions, except for FLX-B-10 at 30 mg/kg
[1]; 100 mg/kg p.o.
  IL-5 levels in BALF: significantly reduced
[1]; 30 and 100 mg/kg p.o. (FIG. 4)
  IL-13 in BALF, dose dependence: dose-dependent decrease
[1]; 30 and 100 mg/kg p.o. (FIG. 6)
  CCL-22 in BALF, dose dependence: dose-dependent decrease
[1]; 30 and 100 mg/kg p.o., 24 hours after last ovalbumin challenge
  reduction of eosinophilic inflammation (BALF) with respect to the OVA group: statistically significant reduction of eosinophilic inflammation only at 100 mg/kg
